In this assay the target is LsrK (Salmonella typhimurium, UniProt Q8ZKQ6). Kind of assay: biochemical. It is filed as biochemical, S. typhimurium. Particulars: for Inhibition (%): 50 µM.

The source of these data is article PMC6627609, “Targeting Quorum Sensing: High-Throughput Screening to Identify Novel LsrK Inhibitors” (International Journal of Molecular Sciences, 2019).

Molecules are shown by their SMILES. Structures can show the parent of a compound that is named as a salt.

Chain of LsrK (Q8ZKQ6 whole entry): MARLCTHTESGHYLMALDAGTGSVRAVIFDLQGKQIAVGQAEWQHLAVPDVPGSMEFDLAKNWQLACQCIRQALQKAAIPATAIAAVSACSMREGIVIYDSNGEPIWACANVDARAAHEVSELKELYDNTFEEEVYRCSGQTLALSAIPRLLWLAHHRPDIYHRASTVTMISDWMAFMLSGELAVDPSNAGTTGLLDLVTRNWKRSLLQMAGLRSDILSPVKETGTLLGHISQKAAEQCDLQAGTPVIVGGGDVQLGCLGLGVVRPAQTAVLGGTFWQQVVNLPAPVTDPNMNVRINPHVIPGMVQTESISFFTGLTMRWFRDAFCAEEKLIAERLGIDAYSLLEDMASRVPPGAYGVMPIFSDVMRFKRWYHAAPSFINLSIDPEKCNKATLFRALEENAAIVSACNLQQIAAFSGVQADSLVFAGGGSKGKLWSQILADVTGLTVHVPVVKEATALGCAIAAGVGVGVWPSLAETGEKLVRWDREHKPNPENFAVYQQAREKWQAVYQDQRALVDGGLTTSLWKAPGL

As for `OC(CCN1CCCCC1)(c1ccccc1)c1ccccc1` [PRIDINOL METHANESULFONATE], the inhibition at 50 µM came out at 1%. As for `COc1cc(NC(C)CCCN)c2ncccc2c1` (stereo not shown) [PRIMAQUINE DIPHOSPHATE], the inhibition at 50 µM worked out at 89%. Turning to `COC(=O)[C@]1(C)CC[C@]2(C)CC[C@]3(C)C4=CC=C5C(=CC(=O)C(O)=C5C)[C@]4(C)CC[C@@]3(C)[C@@H]2C1` [PRISTIMERIN], the inhibition at 50 µM worked out at 7%. The same measure, in the same setting: the figure for `OC(CCN1CCCC1)(c1ccccc1)C1CCCCC1` (stereo not shown) [PROCYCLIDINE HYDROCHLORIDE] is 0%; for `CN(C)CCCN1c2ccccc2Sc2ccccc21` [PROMAZINE HYDROCHLORIDE] it is 3%; for `CC(C)c1cccc(C(C)C)c1O` [PROPOFOL] it is 7%.

Turning to `C=CC1=C(C)c2cc3[nH]c(cc4nc(cc5[nH]c(cc1n2)c(C)c5CCC(=O)O)C(CCC(=O)O)=C4C)c(C)c3C=C` [PROTOPORPHYRIN IX], the IC50 was determined as 9 µM and the inhibition at 50 µM is 100%. For `CNCCCC1c2ccccc2C=Cc2ccccc21.Cl` [PROTRYPTYLINE HYDROCHLORIDE], the “Inhibition (%)” value was determined as 1. Turning to `CC1=CCc2c(cc3oc(C)cc(=O)c3c2O)OC1` [PTAEROXYLIN], the inhibition at 50 µM was found to be 1%. For `COc1ccc(C[C@H](N)C(=O)N[C@H]2[C@@H](O)[C@H](n3cnc4c(N(C)C)ncnc43)O[C@@H]2CO)cc1` [PUROMYCIN HYDROCHLORIDE], the inhibition at 50 µM amounted to 0%.

With `O=C1c2ccccc2C(=O)c2c(O)c(O)cc(O)c21` [PURPURIN], the inhibition at 50 µM is 45%. For the compound `O=c1c(O)cccc2cc(O)c(O)c(O)c12` [PURPUROGALLIN], the inhibition at 50 µM is 89%. The same measure, in the same setting: the figure for `CN1CCCN=C1/C=C/c1cccs1` [PYRANTEL PAMOATE] is 101%; for `Cc1ncc(CSSCc2cnc(C)c(O)c2CO)c(CO)c1O` [PYRITINOL] it is 1%. On to `O=c1cccc2ccc(O)c(O)c2c1O` [PYROGALLIN], for which the “Inhibition (%)” value stood at 101. `CC[C@@]1(O)C[C@H](O[C@H]2C[C@H](N(C)C)[C@H](O)[C@H](C)O2)c2c(cc3c(c2O)C(=O)c2c(O)ccc(O)c2C3=O)[C@H]1C(=O)OC` [PYRROMYCIN]: the inhibition at 50 µM amounted to 1%.

On to `O=c1c(O)c(-c2ccc(O)c(O)c2)oc2cc(O)cc(O)c12` [QUERCETIN], for which the inhibition at 50 µM is 22%.

Consider `C[C@@H]1O[C@@H](Oc2c(-c3ccc(O)c(O)c3)oc3cc(O)cc(O)c3c2=O)[C@H](O)[C@H](O)[C@H]1O` [QUERCITRIN], for which the inhibition at 50 µM stood at 2%. Still for that read-out and setting: the figure for `CCN(CC)CCCC(C)Nc1c2ccc(Cl)cc2nc2ccc(OC)cc12` (stereo not shown) [QUINACRINE HYDROCHLORIDE] is 3%. Same read-out and setting: the result for `O=C(O)[C@]1(O)C[C@@H](O)[C@@H](O)[C@H](O)C1` [QUINIC ACID] reads 0%. Still for that read-out and setting: the figure for `C=C[C@H]1CN2CC[C@H]1C[C@H]2[C@H](OC(=O)OCC)c1ccnc2ccc(OC)cc12` [QUININE ETHYL CARBONATE] is 3%; for `COCCCOc1ccnc(C[S+]([O-])c2nc3ccccc3[nH]2)c1C` (stereo not shown) [RABEPRAZOLE SODIUM] it is 0%. As for `O=C(c1ccc(OCCN2CCCCC2)cc1)c1c(-c2ccc(O)cc2)sc2cc(O)ccc12` [RALOXIFENE HYDROCHLORIDE], the inhibition at 50 µM is 0%. Still for that read-out and setting: the result for `CNC(=C[N+](=O)[O-])NCCSCc1ccc(CN(C)C)o1` [RANITIDINE] reads 1%; that for `COC(=O)[C@H]1[C@H]2C[C@@H]3c4[nH]c5cc(OC)ccc5c4CCN3C[C@H]2C[C@@H](OC(=O)c2cc(OC)c(OC)c(OC)c2)[C@@H]1OC` [RESERPINE], 1%; that for `CC(=O)Oc1cccc(O)c1` [RESORCINOL MONOACETATE], 1%. Still for that read-out and setting: the result for `COc1ccc(/C=C/c2cc(O)cc(O)c2)cc1` [RESVERATROL 4'-METHYL ETHER] reads 2%; that for `CC1=C(/C=C/C(C)=C/C=C/C(C)=C/CO)C(C)(C)CCC1` [RETINOL], 0%. For `CCCCCCCCCCCCCCCC(=O)OC/C=C(C)/C=C/C=C(C)/C=C/C1=C(C)CCCC1(C)C` [RETINYL PALMITATE], the inhibition at 50 µM was found to be 15%.

For the compound `C=C(C)CCCC(C)CCOC(C)=O` (stereo not shown) [RHODINYL ACETATE], the “Inhibition (%)” value is on record as 0. On to `C[C@@H]1O[C@@H](O[C@H]2[C@H](Oc3cc(O)c4c(=O)cc(-c5ccc(O)cc5)oc4c3)O[C@H](CO)[C@@H](O)[C@@H]2O)[C@H](O)[C@H](O)[C@H]1O` [RHOIFOLIN], for which the inhibition at 50 µM was 2%. Consider `COC1=C(O)C(=O)c2c(cc3oc(C(C)=O)c(O)c3c2O)C1=O` [RHO[…]], for which the inhibition at 50 µM worked out at 22%. Same read-out and setting: the result for `NC(=O)c1ncn([C@@H]2O[C@H](CO)[C@@H](O)[C@H]2O)n1` [RIBAVIRIN] reads 5%. For the compound `Cc1cc2nc3c(=O)[nH]c(=O)nc-3n(C[C@H](O)[C@H](O)[C@H](O)COP(=O)([O-])O)c2cc1C.[Na+]` [RIBOFLAVIN 5-PHOSPHATE SODIUM], the “Inhibition (%)” value is 1. For `CO[C@H]1/C=C/O[C@@]2(C)Oc3c(C)c(O)c4c(O)c(c(/C=N/N5CCN(C)CC5)c(O)c4c3C2=O)NC(=O)/C(C)=C\C=C\[C@H](C)[C@H](O)[C@@H](C)[C@@H](O)[C@@H](C)[C@H](OC(C)=O)[C@@H]1C` [RIFAMPIN], the inhibition at 50 µM amounted to 18%.

Take `CO[C@H]1/C=C/O[C@@]2(C)Oc3c(C)c(O)c4c(O)c(c5c(nc6cc(C)ccn65)c4c3C2=O)NC(=O)/C(C)=C\C=C\[C@H](C)[C@H](O)[C@@H](C)[C@@H](O)[C@@H](C)[C@H](OC(C)=O)[C@@H]1C` [RIFAXIMIN]: the inhibition at 50 µM was determined as 1%. Take `O=P([O-])(O)C(O)(Cc1cccnc1)P(=O)(O)O.[Na+]` [RISEDRONATE SODIUM HYDRATE]: the “Inhibition (%)” value is given as 2. As to `Cc1nc2sccn2c(=O)c1CCN1CCC(=C(c2ccc(F)cc2)c2ccc(F)cc2)CC1` [RITANSERIN], the inhibition at 50 µM worked out at 3%. As to `CN(C)CCc1c[nH]c2ccc(Cn3cncn3)cc12` [RIZATRIPTAN BENZOATE], the inhibition at 50 µM is 1%. Same read-out and setting: the result for `COc1ccc(-c2c(O)c3c(OC)c4c(cc3oc2=O)OC(C)(C)C=C4)cc1` [ROBUSTIC ACID] reads 111%; that for `COc1ccc(C2CNC(=O)C2)cc1OC1CCCC1` (stereo not shown) [ROLIPRAM], 1%. Turning to `CN(C)[C@@H]1C(O)=C(C(=O)NCN2CCCC2)C(=O)[C@@]2(O)C(O)=C3C(=O)c4c(O)cccc4[C@@](C)(O)[C@H]3C[C@@H]12` [ROLITETRACYCLINE], the inhibition at 50 µM turned out to be 5%.

Take `O=C(/C=C/c1ccc(O)c(O)c1)O[C@H](Cc1ccc(O)c(O)c1)C(=O)O` [ROSMARINIC ACID]: the inhibition at 50 µM worked out at 2%.

With `CC(C)c1nc(N(C)S(C)(=O)=O)nc(-c2ccc(F)cc2)c1/C=C/[C@@H](O)C[C@@H](O)CC(=O)O` [ROSUVASTATIN CALCIUM], the inhibition at 50 µM is 1%. Still for that read-out and setting: the result for `CC[C@@H](C(=O)[C@@H](C)[C@@H](O)[C@H](C)[C@@H]1O[C@@H]([C@@H](CC)C(=O)O)CC[C@@H]1C)[C@H]1O[C@]2(C=C[C@@H](O)[C@]3(CC[C@@](C)([C@H]4CC[C@](O)(CC)[C@H](C)O4)O3)O2)[C@H](C)C[C@@H]1C` [SALINOMYCIN. SODIUM] reads 2%; that for `C[n+]1cc2c3c(ccc2c2ccc4cc5c(cc4c21)OCO5)OCO3` [SANGUINARINE SULFATE], 84%. Consider `COc1ccc2c(c1)OC/C(=C\c1ccc(OC)c(O)c1)C2=O` [SAPPANONE A DIMETHYL ETHER], for which the inhibition at 50 µM came to 2%. For `O=C(O)c1cn(-c2ccc(F)cc2)c2cc(N3CCNCC3)c(F)cc2c1=O` [SARAFLOXACIN HYDROCHLORIDE], the inhibition at 50 µM turned out to be 0%.

In the case of `COc1cc2ccc(=O)oc2cc1O` [SCOPOLETIN], the inhibition at 50 µM came out at 1%. On the same count and under the same terms, the figure for `CO[C@H]1C[C@H](O[C@@H]2/C(C)=C/C[C@@H]3C[C@@H](C[C@]4(CC[C@H](C)[C@@H](C5CCCCC5)O4)O3)OC(=O)[C@@H]3C=C(C)/C(=N/O)[C@H]4OC/C(=C\C=C\[C@@H]2C)[C@]43O)O[C@@H](C)[C@@H]1O` [SELAMECTIN] is 0%; for `CC1CCC(NC(=O)N(CCCl)N=O)CC1` (stereo not shown) [SEMUSTINE] it is 0%.

Turning to `O=C(O)c1cc(O)c2c(c1)[C@H]([C@H]1c3cc(C(=O)O)cc(O)c3C(=O)c3c(O[C@@H]4O[C@H](CO)[C@@H](O)[C@H](O)[C@H]4O)cccc31)c1cccc(O[C@@H]3O[C@H](CO)[C@@H](O)[C@H](O)[C@H]3O)c1C2=O` [SENNOSIDE A], the inhibition at 50 µM came out at 0%. On the same count and under the same terms, the result for `O=C(O)C1=C[C@@H](O)[C@@H](O)[C@H](O)C1` [SHIKIMIC ACID] reads 1%. With `CC(C)CC(N(C)C)C1(c2ccc(Cl)cc2)CCC1.Cl` (stereo not shown) [SIBUTRAMINE HYDROCHLORIDE], the “Inhibition (%)” value amounted to 1.

Take `COc1cc(C2Oc3cc([C@H]4Oc5cc(O)cc(O)c5C(=O)[C@@H]4O)ccc3OC2CO)ccc1O` (stereo partly shown) [SILIBININ]: the inhibition at 50 µM came to 27%. Same read-out and setting: the result for `CCC(C)(C)C(=O)O[C@H]1C[C@@H](C)C=C2C=C[C@H](C)[C@H](CC[C@@H]3C[C@@H](O)CC(=O)O3)[C@H]21` [SIMVASTATIN] reads 3%.

On to `CO[C@H]1C[C@@H]2CC[C@@H](C)[C@@](O)(O2)C(=O)C(=O)N2CCCC[C@H]2C(=O)O[C@H]([C@H](C)C[C@@H]2CC[C@@H](O)[C@H](OC)C2)CC(=O)[C@H](C)/C=C(\C)[C@@H](O)[C@@H](OC)C(=O)[C@H](C)C[C@H](C)/C=C/C=C/C=C/1C` [SIROLIMUS], for which the inhibition at 50 µM amounted to 4%.

`Cc1c[nH]c2ccccc12` [SKATOLE]: the “Inhibition (%)” value came to 1. As for `O=C(O)CCCO` [SODIUM OXYBATE], the inhibition at 50 µM is 1%. Turning to `CCCCC(CC)CCC(CC(C)C)OS(=O)(=O)O` (stereo not shown) [SODIUM TETRADECYL SULFATE], the inhibition at 50 µM turned out to be 98%. Regarding `CC(C)=CCC/C(C)=C/CC/C(C)=C/CC/C(C)=C/CC/C(C)=C/CC/C(C)=C/CC/C(C)=C/CC/C(C)=C/CC/C(C)=C/CO` [SOLANESOL], the “Inhibition (%)” value is recorded as 1. For the compound `C[C@@H]1CC[C@@]2(NC1)O[C@H]1C[C@H]3[C@@H]4CC=C5C[C@@H](O)CC[C@]5(C)[C@H]4CC[C@]3(C)[C@H]1[C@@H]2C` [SOLASODINE], the inhibition at 50 µM worked out at 1%. `CC1=CC(=O)[C@H]2C(C)(C)CCC[C@]2(C)[C@@]1(O)CCc1ccoc1` [SOLIDAGENONE]: the “Inhibition (%)” value is recorded as 0.

One may read the inhibition as the change of the read-out against control, counted positive when it falls. By IC50 is commonly meant the concentration that gives 50% inhibition. Low values mean higher potency, high ones lower potency.
